Laboratory results taken from ChEMBL document CHEMBL1154462, “Synthesis and in vitro anti-bacterial evaluation of tetracyclic-ortho-fused 4H-naphtho[1',2'-5,6]pyrano[3,4-d](1,2,3)selenadiazole and its derivatives” (2008).
In brackets after ≈: the same amount, converted by molar mass.

Columns and labels:
Format in all cases: functional
Staphylococcus aureus = assay: Antibacterial activity against Staphylococcus aureus isolate by agar cup method
Bacillus subtilis = assay: Antibacterial activity against Bacillus subtilis isolate by agar cup method
Escherichia coli = assay: Antibacterial activity against Escherichia coli isolate by agar cup method
Pseudomonas aeruginosa = assay: Antibacterial activity against Pseudomonas aeruginosa isolate by agar cup method

Row | SMILES | MIC (Staphylococcus aureus) [µg/mL] | MIC (Bacillus subtilis) [µg/mL] | MIC (Escherichia coli) [µg/mL] | MIC (Pseudomonas aeruginosa) [µg/mL]
1 | Brc1cccc2c3c(ccc12)OCc1[se]nnc1-3 | 50 (≈ 137 µM) | 100 (≈ 273 µM) | 250 (≈ 683 µM) | 1000 (≈ 2730 µM)
2 | CC1Oc2ccc3cc(Br)ccc3c2-c2nn[se]c21 (stereo not given) | 500 (≈ 1320 µM) | 50 (≈ 132 µM) | 500 (≈ 1320 µM) | 1000 (≈ 2630 µM)
3 | CC1Oc2ccc3ccccc3c2-c2nn[se]c21 (stereo not given) | 250 (≈ 830 µM) | 250 (≈ 830 µM) | 500 (≈ 1660 µM) | 1000 (≈ 3320 µM)
4 | Brc1ccc2c3c(ccc2c1)OCc1[se]nnc1-3 | 50 (≈ 137 µM) | 100 (≈ 273 µM) | 50 (≈ 137 µM) | 500 (≈ 1370 µM)
5 | c1ccc2c3c(ccc2c1)OCc1[se]nnc1-3 | 250 (≈ 871 µM) | 250 (≈ 871 µM) | 250 (≈ 871 µM) | 1000 (≈ 3480 µM)
